Values of other authors, collected in publication PMC5201331, “Subchronic Toxicities of HZ1006, a Hydroxamate-Based Histone Deacetylase Inhibitor, in Beagle Dogs and Sprague-Dawley Rats” (International Journal of Environmental Research and Public …, 2016).

Legend:
[1] = tested on: patients; design: method as in PMID 12440223; settings: day-1 and -5 schedule every 21 days; cited from earlier work
[2] = tested on: dogs; design: method as in PMID 19903873; settings: 26 weeks orally dosed daily with 4-week recovery; cited from earlier work
[3] = tested on: rats; design: method as in PMID 19903873; settings: rats, 20, 50 or 150 mg/kg/day, 26 weeks orally dosed daily with 4-week recovery; cited from earlier work

SMILES	MTD [1] [mg/m^2]	no-observed adverse effect level [2] [mg/kg/day]	no-observed adverse effect level [3]
C/C=C1\NC(=O)[C@H]2CSSCC/C=C/[C@H](CC(=O)N[C@H](C(C)C)C(=O)N2)OC(=O)[C@H](C(C)C)NC1=O [depsipeptide]	17.8	–	–
O=C(CCCCCCC(=O)Nc1ccccc1)NO [vorinostat, suberoylanilide hydroxamic acid]	–	60	not established
